This is an account of results in paper PMC7587356, “High-Throughput Screening for Inhibitors of the SARS-CoV-2 Protease Using a FRET-Biosensor” (Molecules, 2020).

The assay concerns the target SARS-CoV-2 3CLpro (Severe acute respiratory syndrome coronavirus 2, UniProt P0DTD1). Nature of the assay: biochemical. The assay is classed as biochemical. Details: Replicate_1 / Replicate_2 / mean / mean (LOPAC_screen_w_protease): unit not given here.
Where [1] appears, read: sheet LOPAC_screen_w_protease, LOPAC1280 at 5 µM, mean of two replicates.
[2] abbreviates: sheet LOPAC_screen_w_protease, LOPAC1280 at 5 µM, replicate 1.
Where [3] appears, read: sheet LOPAC_screen_w_protease, LOPAC1280 at 5 µM, replicate 2.
Where [4] appears, read: 4 h, sheet LOPAC_screen_w_protease, LOPAC1280 primary screen at 5 µM, with protease, mean of the two replicates, read-out: mean.
Where [5] appears, read: 4 h, sheet LOPAC_screen_w_protease, LOPAC1280 primary screen at 5 µM, with protease, replicate 1, read-out: Replicate_1.
Setting [6] is: 4 h, sheet LOPAC_screen_w_protease, LOPAC1280 primary screen at 5 µM, with protease, replicate 2, read-out: Replicate_2.
Where [7] appears, read: sheet LOPAC_screen_w_protease, LOPAC1280 primary screen at 5 µM, with protease, replicate 1.
[8] abbreviates: sheet LOPAC_screen_w_protease, LOPAC1280 primary screen at 5 µM, with protease, replicate 2.
Setting [9] is: 4 h, sheet LOPAC_screen_w_protease, LOPAC1280 at 5 µM, mean of two replicates, read-out: mean.
Setting [10] is: 4 h, sheet LOPAC_screen_w_protease, LOPAC1280 at 5 µM, replicate 1, read-out: Replicate_1.
The mark [11] stands for this setting: 4 h, sheet LOPAC_screen_w_protease, LOPAC1280 at 5 µM, replicate 2, read-out: Replicate_2.
The mark [12] stands for this setting: LOPAC1280 primary screen with protease, 5 µM compound, mean of two replicates.
Where [13] appears, read: LOPAC1280 primary screen with protease, 5 µM compound, replicate 1.
The mark [14] stands for this setting: LOPAC1280 primary screen with protease, 5 µM compound, replicate 2.
Setting [15] is: sheet LOPAC_screen_w_protease, primary screen at 5 µM, mean of two replicates.
Where [16] appears, read: sheet LOPAC_screen_w_protease, primary screen at 5 µM, replicate 1.
[17] abbreviates: sheet LOPAC_screen_w_protease, primary screen at 5 µM, replicate 2.
Where [18] appears, read: 4 h, LOPAC1280 primary screen with protease, 5 µM compound, replicate 1, read-out: Replicate_1 (LOPAC_screen_w_protease).
The mark [19] stands for this setting: 4 h, LOPAC1280 primary screen with protease, 5 µM compound, replicate 2, read-out: Replicate_2 (LOPAC_screen_w_protease).
Setting [20] is: LOPAC1280 primary screen with protease, 5 µM compound, mean of the two replicates.
Setting [21] is: sheet LOPAC_screen_w_protease, primary screen with protease, mean of two replicates.
The mark [22] stands for this setting: sheet LOPAC_screen_w_protease, primary screen with protease, replicate 1.
The mark [23] stands for this setting: sheet LOPAC_screen_w_protease, primary screen with protease, replicate 2.

Where a name gives a salt, the structure may show the parent alone. Read-outs that look alike come from different tables or passages of the source.

Take `CC(Oc1ccc(Oc2cnc3ccc(Cl)cc3n2)cc1)C(=O)O` (centres unmarked) [XK469]: the mean under setting [1] was 1.32. This molecule also displayed a Replicate_1 under setting [2] of 0.4248. Also, the Replicate_2 under setting [3] was found to be 2.215.
In the case of `O=C(NCCNCC(O)COc1ccc(O)cc1)N1CCOCC1` (centres unmarked) [Xamoterol hemifumarate], the inhibition at 5 µM under setting [4] is 0.551%, the inhibition at 5 µM under setting [5] was determined as 1.09% and the inhibition at 5 µM under setting [6] amounted to 0.0143%.
In turn, `CCCn1c(=O)c2[nH]c(-c3ccc(OCC(=O)NCCN)cc3)nc2n(CCC)c1=O` [Xanthine amine congener] returned a mean (sheet LOPAC_screen_w_protease, LOPAC1280 primary screen at 5 µM, with protease, mean of two replicates) of -1.654. Also, the Replicate_1 under setting [7] is listed as -1.399. Under setting [8], this molecule yielded a Replicate_2 of -1.91.
Regarding `Cc1cccc(C)c1N=C1NCCCS1` [Xylazine hydrochloride], the inhibition at 5 µM by setting is: (4 h, read-out: Replicate_1) 0.366%; (4 h, read-out: Replicate_2) 2.25%; (4 h, read-out: mean) 1.31%.
As for `Cc1cc(C(C)(C)C)cc(C)c1CC1=NCCN1` [Xylometazoline hydrochloride], the inhibition at 5 µM reads like this: under setting [9], 1.12%; under setting [10], 0.813%; under setting [11], 1.42%.
As for `C[C@@H](N)[C@H]1CC[C@H](C(=O)Nc2ccncc2)CC1.Cl.Cl` [Y-27632 dihydrochloride], under setting [12], the “mean (LOPAC_screen_w_protease)” value is on record as 1.325. In addition, the “Replicate_1 (LOPAC_screen_w_protease)” value under setting [13] worked out at 2.12. The “Replicate_2 (LOPAC_screen_w_protease)” value under setting [14] is 0.5298.
In the same order, the values of `OCc1ccc(-c2nn(Cc3ccccc3)c3ccccc23)o1` [YC-1] are 1.333, 0.3284 and 2.338.
The molecule `COc1ccc(CCN(C)CCc2ccc(OC)c(OC)c2)cc1OC.Cl` [YS-035 hydrochloride] showed a mean (sheet LOPAC_screen_w_protease, LOPAC1280 primary screen at 5 µM, with protease, mean of the two replicates) of 0.8264. Moreover, under setting [7], the Replicate_1 came to 0.7595. The molecule further returned a Replicate_2 under setting [8] of 0.8934.
Consider `COC(=O)[C@@H]1[C@H]2C[C@H]3c4[nH]c5ccccc5c4CCN3C[C@@H]2CC[C@@H]1O` [Yohimbine hydrochloride], for which the inhibition at 5 µM (4 h, sheet LOPAC_screen_w_protease, primary screen with protease, 5 µM, mean of two replicates, read-out: mean) came out at 0.269%; the inhibition at 5 µM (4 h, sheet LOPAC_screen_w_protease, primary screen with protease, 5 µM, replicate 1, read-out: Replicate_1) is -0.997%; the inhibition at 5 µM (4 h, sheet LOPAC_screen_w_protease, primary screen with protease, 5 µM, replicate 2, read-out: Replicate_2) was found to be 1.53%.
As to `O=C(N[C@@H](Cc1ccccc1)C(=O)CCl)OCc1ccccc1` [Z-L-Phe chloromethyl ketone], the inhibition at 5 µM (4 h, sheet LOPAC_screen_w_protease, primary screen at 5 µM, mean of two replicates, read-out: mean (LOPAC screen with protease)) amounted to 100%; the inhibition at 5 µM (4 h, sheet LOPAC_screen_w_protease, primary screen at 5 µM, replicate 1, read-out: Replicate_1 (LOPAC screen with protease)) amounted to 100%; the inhibition at 5 µM (4 h, sheet LOPAC_screen_w_protease, primary screen at 5 µM, replicate 2, read-out: Replicate_2 (LOPAC screen with protease)) is 100%.
Regarding `CC(C)N(CCC(=O)c1ccc2ccccc2c1)Cc1ccccc1.Cl` [ZM 39923 hydrochloride], the “mean (LOPAC screen with protease)” value under setting [15] came to 93.4745. For the same molecule, the “Replicate_1 (LOPAC screen with protease)” value under setting [16] was 92.2854. The “Replicate_2 (LOPAC screen with protease)” value under setting [17] is on record as 94.6636.
On to `CCCOc1ccccc1-c1nc2nn[nH]c2c(=O)[nH]1` [Zaprinast], for which the inhibition at 5 µM under setting [18] was found to be 2.02% and the inhibition at 5 µM under setting [19] was determined as 1.12%. Besides, the “mean (LOPAC_screen_w_protease)” value under setting [12] is 1.567.
Consider `COc1cc(-c2ccc(=O)[nH]n2)ccc1OC(F)F` [Zardaverine], for which the inhibition at 5 µM by setting is: under setting [18], 2.27%; under setting [19], 1.55%. Further, under setting [20], the “mean (LOPAC_screen_w_protease)” value turned out to be 1.91.
Regarding `CN(C)C/C=C(/c1ccc(Br)cc1)c1cccnc1` [Zimelidine dihydrochloride], the inhibition at 5 µM was determined as 0.989% under setting [9], 1.05% under setting [10] and 0.928% under setting [11].
As to `NS(=O)(=O)Cc1noc2ccccc12` [Zonisamide sodium], the inhibition at 5 µM is 0.586% under setting [4], -0.00469% under setting [5] and 1.18% under setting [6].
For `N=C(N)NC(CCC(=O)O)C(=O)O` (stereo not drawn) [alpha-Guanidinoglutaric acid], the “mean (LOPAC_screen_w_protease)” value under setting [20] is listed as 1.992. In addition, the “Replicate_1 (LOPAC_screen_w_protease)” value under setting [13] is 2.352. Also, the “Replicate_2 (LOPAC_screen_w_protease)” value under setting [14] was determined as 1.632.
Regarding `CN1[C@@H](CC(=O)c2ccccc2)CCC[C@H]1C[C@H](O)c1ccccc1.Cl` [alpha-Lobeline hydrochloride], under setting [1], the mean stood at 1.292. This molecule gave a Replicate_1 under setting [2] of 1.696. Besides, the Replicate_2 under setting [3] was 0.8887.
`CC(N)Cc1c[nH]c2ccc(O)cc12.O=C(O)/C=C\C(=O)O` (stereo not drawn) [alpha-Methyl-5-hydroxytryptamine maleate]: the mean (sheet LOPAC_screen_w_protease, LOPAC1280 primary screen with protease, 5 µM compound, mean of the two replicates) turned out to be 6.214. Also, the Replicate_1 (sheet LOPAC_screen_w_protease, LOPAC1280 primary screen with protease, 5 µM compound, replicate 1) came out at 5.086. For the same molecule, where the note is “sheet LOPAC_screen_w_protease, LOPAC1280 primary screen with protease, 5 µM compound, replicate 2”, the Replicate_2 turned out to be 7.342.
On to `Cl.N[C@@H](CCl)C(=O)O` [beta-Chloro-L-alanine hydrochloride], for which the mean under setting [21] is 2.368. In addition, under setting [22], the Replicate_1 was determined as 2.376. This molecule also returned a Replicate_2 under setting [23] of 2.361.
As for `CC1(C)CCC2=C(O1)c1ccccc1C(=O)C2=O` [beta-Lapachone], the inhibition at 5 µM worked out at 0.593% (4 h, read-out: Replicate_1); 0.52% (4 h, read-out: Replicate_2); 0.557% (4 h, read-out: mean).
On to `NC/C=C\C(=O)O` [cis-4-Aminocrotonic acid], for which the mean under setting [21] is listed as 2.546. The molecule further yielded a Replicate_1 under setting [22] of 3.312. Under setting [23], the Replicate_2 is given as 1.781.
In the case of `OCCN1CCN(CC/C=C2/c3ccccc3Sc3ccc(C(F)(F)F)cc32)CC1` [cis-(Z)-Flupenthixol dihydrochloride], the inhibition at 5 µM (4 h, sheet LOPAC_screen_w_protease, primary screen with protease, mean of two replicates, read-out: mean) came out at 2.17%; the inhibition at 5 µM (4 h, sheet LOPAC_screen_w_protease, primary screen with protease, replicate 1, read-out: Replicate_1) stood at 2.7%; the inhibition at 5 µM (4 h, sheet LOPAC_screen_w_protease, primary screen with protease, replicate 2, read-out: Replicate_2) was determined as 1.63%.
For the molecule `O=C(O)[C@@H]1C[C@H](C(=O)O)N1` [cis-Azetidine-2,4-dicarboxylic acid], under setting [12], the “mean (LOPAC_screen_w_protease)” value is given as 1.501. In addition, the “Replicate_1 (LOPAC_screen_w_protease)” value under setting [13] turned out to be 1.545. Moreover, the “Replicate_2 (LOPAC_screen_w_protease)” value under setting [14] was determined as 1.457.
On to `O=C1c2c(O)cc(O)cc2O[C@H](c2ccc(O)c(O)c2)[C@H]1O` [dihydroquercetin, reference compound], for which the “inhibition of 3CLpro in the primary screen” value (5 µM compound, 0.01% Triton X-100, 4 h endpoint, duplicate mean) is given as 7.5%.
`C#CC(N)CCC(=O)O` (centres unmarked) [gamma-Acetylinic GABA]: under setting [21], the mean stood at 2.242. Besides, under setting [22], the Replicate_1 came out at 2.252. Moreover, the Replicate_2 under setting [23] turned out to be 2.232.
As to `N[C@H](CCC(=O)NCS(=O)(=O)O)C(=O)O` [gamma-D-Glutamylaminomethylsulfonic acid], the mean under setting [1] is 1.223. Under setting [2], this molecule returned a Replicate_1 of 4.708. Under setting [3], this molecule gave a Replicate_2 of -2.2619.
In the case of `CC(C(=O)O)c1ccc(CC2CCCC2=O)cc1` (centres unmarked) [loxoprofen], the inhibition at 5 µM was 1.2% under setting [9], 0.313% under setting [10] and 2.09% under setting [11].
Consider `O=c1cc(-c2ccc(O)c(O)c2)oc2cc(O)cc(O)c12` [luteolin, reference compound], for which the inhibition at 5 µM runs as follows: (4 h, read-out: Replicate_1) 0.919%; (4 h, read-out: Replicate_2) 1.72%; (4 h, read-out: mean) 1.32%; (read-out: inhibition of 3CLpro in the primary screen) 1.3%.
`NC(N)=NCc1cccc(I)c1.NC(N)=NCc1cccc(I)c1.O=S(=O)(O)O` [m-Iodobenzylguanidine hemisulfate] came in with a mean under setting [21] of 2.496. The Replicate_1 under setting [22] came to 1.063. The Replicate_2 under setting [23] was found to be 3.929.
Turning to `Cl.Cl.Oc1ccc2c3c1O[C@H]1c4[nH]c5c(c4C[C@@]4(O)[C@@H](C2)N(CC2CC2)CC[C@]314)C[C@@]1(O)[C@H]2Cc3ccc(O)c4c3[C@@]1(CCN2CC1CC1)[C@H]5O4` [nor-Binaltorphimine dihydrochloride], the “mean (LOPAC screen with protease)” value under setting [15] stood at 34.0021. Also, the “Replicate_1 (LOPAC screen with protease)” value under setting [16] was 34.0521. The “Replicate_2 (LOPAC screen with protease)” value under setting [17] was found to be 33.9521.
